Assay results from patent US20230365537A1, “POLO LIKE KINASE 4 INHIBITORS” (ORIC Pharmaceuticals, Inc., priority 2021, published 2023).

Experiments:
[1] = biological target: human recombinant Aurora B (Homo sapiens (Human), UniProt Q96GD4); assay: Aurora B Kinase Biochemical Assay (ADP-Glo); conditions: ratio of Aurora B IC50 to PLK4 IC50 (selectivity)
Procedure, shortened: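 IC50 derived by four-parameter nonlinear fit of ADP-Glo luminescence (ADP produced). Compound was preincubated 15 min at RT with 20 nM recombinant human Aurora B, in 50 mM HEPES pH 7.5, 10 mM MgCl2, 1 mM EGTA, 1 mM DTT, 0.01% Brij-35/BSA.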

[2] = biological target: human recombinant Aurora A (Homo sapiens (Human), UniProt O14965); assay: Aurora A Kinase Biochemical Assay (ADP-Glo); conditions: ratio of Aurora A IC50 to PLK4 IC50 (selectivity)
human recombinant Aurora A, sequence (O14965 whole entry): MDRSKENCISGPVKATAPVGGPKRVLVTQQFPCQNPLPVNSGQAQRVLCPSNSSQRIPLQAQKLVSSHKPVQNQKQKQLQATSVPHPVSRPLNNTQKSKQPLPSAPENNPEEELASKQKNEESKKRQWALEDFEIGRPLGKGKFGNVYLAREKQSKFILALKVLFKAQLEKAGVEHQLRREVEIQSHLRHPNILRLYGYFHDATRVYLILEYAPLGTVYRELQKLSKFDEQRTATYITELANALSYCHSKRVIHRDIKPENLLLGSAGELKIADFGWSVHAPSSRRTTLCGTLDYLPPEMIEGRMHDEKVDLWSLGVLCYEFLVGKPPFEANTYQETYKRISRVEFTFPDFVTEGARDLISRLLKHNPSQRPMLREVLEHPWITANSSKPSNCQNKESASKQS

CHP-134 cells = assay: CHP134 CellTiter-Glo (CTG) Assay; type: cell-based; conditions: Homo sapiens, CHP-134, 120 h, 5 days, viable cells by CellTiter-Glo
Procedure, shortened: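 Nine-point 1:3 dilution series, diluted into growth media, added in quadruplicate to CHP-134 cells plated 16 h earlier at 200 cells/well.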

human recombinant PLK4 = human recombinant PLK4 (Homo sapiens (Human), UniProt O00444); assay: PLK4 Biochemical Assay (ADP-Glo); conditions: 0.5 nM PLK4, 8.0 µM ATP, 4.7 µM MBP, 6 hours at RT
human recombinant PLK4, sequence (O00444 whole entry): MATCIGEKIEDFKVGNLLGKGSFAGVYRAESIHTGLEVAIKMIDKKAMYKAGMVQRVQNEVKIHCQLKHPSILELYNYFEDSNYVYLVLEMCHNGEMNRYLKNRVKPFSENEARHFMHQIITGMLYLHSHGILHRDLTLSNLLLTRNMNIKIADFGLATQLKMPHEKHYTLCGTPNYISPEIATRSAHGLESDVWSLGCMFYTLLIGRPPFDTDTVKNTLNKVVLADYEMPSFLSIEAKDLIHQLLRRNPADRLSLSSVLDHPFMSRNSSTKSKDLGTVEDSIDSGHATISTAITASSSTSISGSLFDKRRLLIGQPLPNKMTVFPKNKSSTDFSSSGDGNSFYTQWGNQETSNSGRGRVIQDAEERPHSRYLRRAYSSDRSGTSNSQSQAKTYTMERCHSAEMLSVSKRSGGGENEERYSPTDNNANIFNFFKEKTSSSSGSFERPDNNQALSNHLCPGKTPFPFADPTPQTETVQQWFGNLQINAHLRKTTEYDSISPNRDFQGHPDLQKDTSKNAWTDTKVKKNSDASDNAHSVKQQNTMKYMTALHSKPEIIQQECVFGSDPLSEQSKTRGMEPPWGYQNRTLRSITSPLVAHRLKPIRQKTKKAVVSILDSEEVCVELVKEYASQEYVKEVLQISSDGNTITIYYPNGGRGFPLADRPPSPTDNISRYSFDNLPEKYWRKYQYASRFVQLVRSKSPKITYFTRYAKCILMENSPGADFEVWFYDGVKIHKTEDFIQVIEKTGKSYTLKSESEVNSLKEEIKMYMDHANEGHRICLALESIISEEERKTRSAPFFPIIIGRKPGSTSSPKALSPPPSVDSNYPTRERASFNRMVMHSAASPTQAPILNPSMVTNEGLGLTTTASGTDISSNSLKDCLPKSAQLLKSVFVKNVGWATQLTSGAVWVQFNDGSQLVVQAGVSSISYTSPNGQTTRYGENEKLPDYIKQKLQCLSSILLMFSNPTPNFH
Procedure, shortened: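 Luminescent ADP-Glo detection quantified ADP production, with ATP depletion for 40 min and detection for 30 min at room temperature. Compound and PLK4 (1.0 nM stock addition) were preincubated 15 min in HEPES pH 7.5 buffer containing MgCl2, EGTA, DTT, Brij-35 and BSA. IC50 values were obtained by four-parameter nonlinear regression.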

human recombinant Aurora B, sequence (Q96GD4 whole entry): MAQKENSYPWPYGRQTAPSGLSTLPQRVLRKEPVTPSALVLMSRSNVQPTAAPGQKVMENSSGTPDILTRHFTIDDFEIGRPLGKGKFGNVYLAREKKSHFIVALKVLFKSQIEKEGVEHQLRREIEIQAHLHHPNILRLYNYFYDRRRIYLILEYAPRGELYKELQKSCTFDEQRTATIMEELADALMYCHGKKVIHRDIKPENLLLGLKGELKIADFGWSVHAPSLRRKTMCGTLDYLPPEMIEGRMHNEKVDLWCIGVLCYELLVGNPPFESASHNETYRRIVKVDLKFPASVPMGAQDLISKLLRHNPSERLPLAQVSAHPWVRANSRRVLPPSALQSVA

Compound	[Aurora B IC50 (nM)]/[PLK4 IC50 (nM)] [1]	[Aurora A IC50 (nM)]/[PLK4 IC50 (nM)] [2]	IC50 (human recombinant PLK4)	IC50 (CHP-134 cells)
COc1ccc2c(c1)[C@]1(C[C@H]1c1ccc3c(Nc4nc(C)nc(N5CC(O)C5)c4Cl)n[nH]c3c1)C(=O)N2 [Example 72, (1R,2S)-2-(3-{[5-chloro-6-(3-hydroxyazetidin-1-yl)-2-methylpyrimidin-4-yl]amino)-1H-indazol-6-yl)-5′-methoxyspiro[cyclopropane-1,3′-indol]-2′(1′H)-one]	405.2156	2006.018	0.997 nM	42.7 nM
COc1ccc2c(c1)[C@]1(C[C@H]1c1ccc3c(Nc4nc(C5CC5)nc(N5CC(O)C5)c4Cl)n[nH]c3c1)C(=O)N2 [Example 76, (1R,2S)-2-(3-{[5-chloro-2-cyclopropyl-6-(3-hydroxyazetidin-1-yl)pyrimidin-4-yl]amino)-1H-indazol-6-yl)-5′-methoxyspiro[cyclopropane-1,3′-indol]-2′(1′H)-one]	535.4839	3304.147	0.434 nM	93.5 nM
COc1ccc2c(c1)[C@]1(C[C@H]1c1ccc3c(Nc4nc(C5CC5)nc(N5C[C@@H](C)O[C@@H](C)C5)c4OC)n[nH]c3c1)C(=O)N2 [Example 77, (1R,2S)-2-[3-({2-cyclopropyl-6-[(2R,6S)-2,6-dimethylmorpholin-4-yl]-5-methoxypyrimidin-4-yl}amino)-1H-indazol-6-yl]-5′-methoxyspiro[cydopropane-1,3′-indol]-2′(1′H)-one]	1577.689	6738.759	1.76 nM	725 nM
COc1ccc2c(c1)[C@]1(C[C@H]1c1ccc3c(Nc4nc(C(C)C)nc(N5CCS(=O)(=O)CC5)c4Cl)n[nH]c3c1)C(=O)N2 [Example 78, (1R,2S)-2-(3-((5-chloro-6-(1,1-dioxidothiomorpholino)-2-isopropylpyrimidin4-yl)amino)-1H-indazol-6-yl)-5′-methoxyspiro[cyclopropane-1,3′-indolin]-2′-one]	1778.857	5660	0.35 nM	61.4 nM
COc1ccc2c(c1)[C@]1(C[C@H]1c1ccc3c(Nc4nc(C5CC5)cnc4OC)n[nH]c3c1)C(=O)N2.O=C(O)C(F)(F)F [Example 80, (1R,2S)-2-{3-[(6-cyclopropyl-3-methorypyrazin-2-yl)amino]-1H-indazol-yl}-5′-metboxyspiro[cyclopropane-1,3′-indol]-2′(1′H)-one]	54.12	346.5116	2.37 nM	294 nM
COc1ccc2c(c1)[C@]1(C[C@H]1c1ccc3c(Nc4nc(C5CC5)nc(N5CC(O)C5)c4OC)n[nH]c3c1)C(=O)N2.O=C(O)C(F)(F)F [Example 81, (1R,2S)-2-(3-{[2-cyclopropyl-6-(3-hydroxyazetidin-1-yl)-5-methoxypyrimidin-4-yl]amino}-1H-indazol-6-yl)-5′-methoxyspiro[cyclopropane-1,3′-indol]-2′(1′H)-one]	220.4239	1478.393	3.63 nM	965 nM
COc1ccc2c(c1)[C@]1(C[C@H]1c1ccc3c(Nc4nc(C(C)C)nc(N5CCS(=O)(=O)CC5)c4OC)n[nH]c3c1)C(=O)N2 [Example 84, (1R,2S)-2-(3-((6-(1,1-dioxidothiomorpholino)-2-isopropyl-5-methoxypyrimidin-4-yl)amino)-1H-indazol-6-yl)-5′-methoxyspiro[cyclopropane-1,3′-indolin]-2′-one]	3151.017	39123.63	1.28 nM	395 nM
COc1ccc2c(c1)[C@]1(C[C@H]1c1ccc3c(Nc4nc(C(C)C)nc(N5CCOCC5)c4OC)n[nH]c3c1)C(=O)N2 [Example 85, (1R,2S)-5′-methoxy-2-(3-{[5-methoxy-6-(morpholin-4-yl)-2-(propan-2-yl)pyrimidin-4-yl]amino}-1H-indazol-6-yl)spiro[cyclopropane-1,3′-indol]-2′(1′H)-one]	3067.539	5554.974	1.91 nM	107 nM

Further lines, with some results ahead:

[Aurora B IC50 (nM)]/[PLK4 IC50 (nM)] [1]	[Aurora A IC50 (nM)]/[PLK4 IC50 (nM)] [2]	IC50 (human recombinant PLK4)	Compound	IC50 (CHP-134 cells)
346.7708	3290.277	7.04 nM	COc1ccc2c(c1)[C@]1(C[C@H]1c1ccc3c(Nc4nc(C)nc(N5CC(O)C5)c4OC)n[nH]c3c1)C(=O)N2 [Example 73, (1R,2S)-2-(3-{[6-(3-hydroxyazetidin-l-yl)-5-methoxy-2-methylpyrimidin-4-yl]amino}-1H-indazol-6-yl)-5′-methoxyspiro[cyclopropane-1,3′-indol]-2′(1′H)-one]	10000 nM
333.3333	908.4004	2.24 nM	COc1ccc2c(c1)[C@]1(C[C@H]1c1ccc3c(Nc4nc(C(C)C)cnc4OC)n[nH]c3c1)C(=O)N2 [Example 83, (1R,2S)-5′-methoxy-2-(3-{[3-methoxy-6-(propan-2-yl)pyrazin-2-yl]amino}-1H-indazol-6-yl)spiro[cyclopropane-1,3′-indol]-2′(1′H)-one]	277 nM
669.3396	1414.623	21.2 nM	COc1ccc2c(c1)[C@]1(C[C@H]1c1ccc3c(Nc4cc(C)ncc4OC)n[nH]c3c1)C(=O)N2 [Example 86, (1R,2S)-5′-methoxy-2-{3-[(5-methoxy-2-methylpyridin-4-yl)amino]-1H-indazol-6-yl}spiro[cyclopropane-1,3′-indol]-2′(1′H)-one]	459 nM
133.9241	973.4177	1.58 nM	COc1ccc2c(c1)[C@]1(C[C@H]1c1ccc3c(Nc4nc(C)ncc4OC)n[nH]c3c1)C(=O)N2 [Example 87, (1R,2S)-5′-methozy-2-{3-[(5-methoxy-2-methylpyrimidin-4-yl)amino]-1H-indazol-6-yl}spiro[cyclopropane-1,3′-indol]-2′(1′H)-one]	235 nM
44.7979	1997.754	2.67 nM	COc1ccc2c(c1)[C@]1(C[C@H]1c1ccc3c(Nc4nc(C)ccc4OC)n[nH]c3c1)C(=O)N2 [Example 88, (1R,2S)-5′-methoxy-2-{3-[(3-methoxy-6-methylpyridin-2-yl)amino]-1H-indazol-6-yl}spiro[cyclopropane-1,3′-indol]-2′(1′H)-one]	1810 nM
314.3289	1736.729	2.32 nM	COc1ccc2c(c1)[C@]1(C[C@H]1c1ccc3c(Nc4cc(C)cnc4OC)n[nH]c3c1)C(=O)N2 [Example 89, (1R,2S)-5′-methoxy-2-{3-[(2-methoxy-5-methylpyridin-3-yl)amino]-1H-indazol-6-yl}spiro[cyclopropane-1,3′-indol]-2′(1′H)-one]	10000 nM
79.87	436.427	4.02 nM	COc1ccc2c(c1)[C@]1(C[C@H]1c1ccc3c(Nc4cc(C5CC5)nn4C)n[nH]c3c1)C(=O)N2 [Example 91, (1R,2S)-2-{3-[(3-cyclopropyl-1-methyl-1H-pyrazol-5-yl)amino]-1H-indazol-6-yl}-5′-methoxyspiro[cyclopropane-1,3′-indol]-2′(1′H)-one]	3200 nM
41.732	533.856	5.61 nM	COc1ccc2c(c1)[C@]1(C[C@H]1c1ccc3c(Nc4ncc(N5CCOCC5)nc4OC)n[nH]c3c1)C(=O)N2 [Example 94, (1R,2S)-5′-methoxy-2-(3-{[3-methoxy-5-(morpholin-4-yl)pyrazin-2-yl]amino}-1H-indazol-6-yl)spiro[cyclopropane-1,3′-indol]-2′(1′H)-one]	4600 nM
54.26	2386.677	1.31 nM	COc1ccc2c(c1)[C@]1(C[C@H]1c1ccc3c(Nc4ccnc(N5CCOCC5)c4OC)n[nH]c3c1)C(=O)N2 [Example 95, (1R,2S)-5′-methoxy-2-(3-{[3-methoxy-2-(morpholin-4-yl)pyridin-4-yl]amino}-1H-induzol-6-yl)spiro[cyclopropane-1,3′-indol]-2′(1′H)-one]	319 nM
351.8943	511.3656	11.3 nM	COc1ccc2c(c1)[C@]1(C[C@H]1c1ccc3c(Nc4cc(C)ncc4Cl)n[nH]c3c1)C(=O)N2 [Example 96, (1R,2S)-2-{3-[(5-chloro-2-methylpyridin-4-yl)amino]-1H-indazol-6-yl}-5′-metboxyspiro[cyclopropane-l,3′-indol]-2′(1′H)-one]	56.6 nM
